Results published in patent publication US11628208B2, “System and method for microneedle delivery of microencapsulated vaccine and bioactive proteins” (priority 2015, dated 2023).

Experiments:
[1] = system: RAW 264.7 cells; experiment: MTS cell cytotoxicity assay; format: cell-based, mouse; settings: 10 mg/mL, positive control, relative to DMEM-treated cells
Experimental: Particles were tested for their cytotoxic properties using MTS assay (Promega), which determines cell viability in culture. RAW 264.7 cells (mouse leukemic monocyte macrophage cell line) were grown in DMEM medium, supplemented with 10% fetal bovine serum and 1% antibiotic in a cell culture flask. The cell culture media was then removed and cells were treated with 2 mL trypsin-EDTA. Thus, cells were detached from the cell culture flask and suspended in 1 mL complete DMEM media. Cell count of the resulting suspension was determined by trypan blue dye exclusion method using Bio-Rad counter (TC10™ Automated cell counter, Bio-Rad, CA). Cell suspension equivalent to 10,000 cells was plated in a 96 well cell culture plate and complete DMEM media was added to attain a volume of 100 μL per well. Plate was incubated for 24 h and various concentrations (2, 1, 0.5, 0.25, 0.125, 0.0625 mg/mL) of 4T07 antigen loaded particles were added to wells (n=3 for each concentration) and again incubated for 24 h. Cells treated with DMEM media alone were used as a negative control and cells treated with benzalkonium chloride (10 mg/ml) were chosen as a positive control (n=3 each). […] The plate was incubated for 4 h at 37° C. in a humidified, 5% CO2 chamber and absorbance was recorded at 490 nm using a UV plate reader (BioTek instruments Inc., VT).

[2] = system: dendritic cells (DC 2.4); experiment: Nitric oxide release from dendritic cells exposed to RSV F-VLP vaccine; format: cell-based
Experimental: For in vitro analysis of immunogenicity of the F-VLP, dendritic cells (DC 2.4) were cultured and exposed to varying concentrations of the vaccine. The optimal concentration was then used to screen four different adjuvants (Poly I:C, Alum, MPL and MF59). Evaluation of innate and adaptive immunity was done using the nitric oxide assay and expression of cell surface markers using the C6 flow cytometer.
a. Following exposure to an antigen, dendritic cells (DC 2.4) are known to release nitric oxide and express cell surface markers that signal CD4+ Helper T cells and/or CD8+ Cytotoxic T cells.

[3] = system: CD4+ and CD8+ T cell populations; experiment: CD4/CD8 population analysis of splenocytes incubated with stimulated APCs; format: cell-based, Swiss Webster mice; settings: 5 days
Experimental: The spleens were collected from the same mice that were harvested APCs from the intraperitoneal cavity, and the single-cell suspensions of the spleens were introduced into the stimulated APCs with a ratio of 1:1 (splenocytes:APCs). After a five-day incubation at 37° C. and 5% CO2, the splenocytes were harvested from the supernatant, washed with Hank's balanced salt solution and labeled with anti-mouse CD4 PE and anti-mouse CD8a FITC. The cells were analyzed for CD4^+ and CD8^+ T cell populations using BD Accuri® C6 flow cytometer.

[4] = system: APCs; experiment: Nitric oxide assay (Greiss) on harvested APCs; format: cell-based, Swiss Webster mice; settings: 2.5 μg adjuvant in MP + 2.5 μg M2p in MP, 20 hours
Experimental: 5 Sodium thioglycolate was injected into the intraperitoneal cavity of Swiss Webster (6-8 week old) with the amount of 40 mg per mouse to recruit the APCs (13)(14). After four days, these mice were euthanized and 5.0 mL of PBS was injected intraperitoneally into each mouse to harvest cells from the cavity. Collected cells were washed with PBS twice before adding the complete RPMI media. After these APCs adhered to the bottom of a T75 flask, the supernatant was removed and complete RPMI media was added in the presence of ConA ([…]).
The harvested APCs (5×10^4 cells/well) were seeded in Dulbecco's complete media in a 96 well plate. The soluble and particulate vaccines (with and without adjuvants) were introduced to the APCs with the same amount of antigen (2.5 μg) and adjuvant (2.5 μg). The induced APCs were incubated for 20 hours at 37° C. % CO2. Supernatants were collected and the amount of nitric oxide released in each group was analyzed using the Greiss chemical method (equal volumes of 1% sulphanilamide and 0.1% N-(1-naphthylethylenediamine)). The plate was read at a wavelength of 540 nm (15).

For `CCCCCCCCCCCCC[N+](C)(C)Cc1ccccc1` [benzalkonium chloride], the cell viability [1] was 21%.

For Poly I:C, the “amount of nitric oxide released, vaccine with adjuvant compared to vaccine alone” value [2] was “much higher compared to vaccine alone”.

monophospholyl lipid A [MPL] was tested, and the “CD8+ T cell population compared to M2p MP treated group” value [3] was “elevated”.

B1: Flagellin: flagellin from Salmonella typhimurium, adjuvant in microparticles (protein, UniProt P06179 2-495, looked up)
Flagellin: AQVINTNSLSLLTQNNLNKSQSALGTAIERLSSGLRINSAKDDAAGQAIANRFTANIKGLTQASRNANDGISIAQTTEGALNEINNNLQRVRELAVQSANSTNSQSDLDSIQAEITQRLNEIDRVSGQTQFNGVKVLAQDNTLTIQVGANDGETIDIDLKQINSQTLGLDTLNVQQKYKVSDTAATVTGYADTTIALDNSTFKASATGLGGTDQKIDGDLKFDDTTGKYYAKVTVTGGTGKDGYYEVSVDKTNGEVTLAGGATSPLTGGLPATATEDVKNVQVANADLTEAKAALTAAGVTGTASVVKMSYTDNNGKTIDGGLAVKVGDDYYSATQNKDGSISINTTKYTADDGTSKTALNKLGGADGKTEVVSIGGKTYAASKAEGHNFKAQPDLAEAAATTTENPLQKIDAALAQVDTLRSDLGAVQNRFNSAITNLGNTVNNLTSARSRIEDSDYATEVSNMSRAQILQQAGTSVLAQANQVPQNVLSLLR
With B1 the “nitric oxide level compared to M2p MP group” value [4] was “significantly higher” and the “CD4+ T cell population compared to M2p MP treated group” value [3] was “elevated CD4+ T cell population”.
